Counter-ions that a name gives are not always drawn.
Target: T1, recombinant human TGR5 (Homo sapiens, UniProt Q8TDU6)
T1 construct: expressed in transfected cells
T1 sequence (Q8TDU6 1-330): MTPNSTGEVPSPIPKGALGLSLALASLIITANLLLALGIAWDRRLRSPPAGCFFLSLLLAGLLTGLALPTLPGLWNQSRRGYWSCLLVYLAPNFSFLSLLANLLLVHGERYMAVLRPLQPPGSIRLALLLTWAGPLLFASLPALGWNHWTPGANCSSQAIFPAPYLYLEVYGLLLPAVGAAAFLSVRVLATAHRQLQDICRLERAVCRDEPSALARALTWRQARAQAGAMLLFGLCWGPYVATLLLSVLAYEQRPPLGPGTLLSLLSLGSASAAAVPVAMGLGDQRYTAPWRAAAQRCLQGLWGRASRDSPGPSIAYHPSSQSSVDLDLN
Assay: cAMP assay (cAMP accumulation, HTRF) in CHOK1 cells stably expressing TGR5
Format: cell-based
Settings: CHOK1 cells stably expressing human TGR5, 30 minutes at RT, 1% DMSO
Description: The in vitro modulation of recombinant human TGR5 was determined as follows.
A human TGR5 expression construct of human TGR5 was integrated into the genome of a CHOK1 cell line (Invitrogen). Once a stable CHOK1 cell line was generated, the cells were incubated for 5-10 minutes in culture medium consisting of F-12 (Invitrogen#11765-047) supplemented with 10% fetal bovine serum.
On the day of the cAMP accumulation assay, cells stably expressing the […] TGR5 construct were centrifuged at 1000 rpm for 5 minutes. The medium was aspirated and the cells were resuspended in 5 mL of assay buffer (phosphate-buffered saline with Ca^2+ and Mg^2+, Invitrogen#14040). The cells were counted using 1:2 dilution and then adjusted to 0.4-0.5×10^6 cells/mL in assay buffer, if necessary. Isobutylmethylxanthine (IBMX, Sigma#I5879) was added via a 1:5000 dilution to make a 0.1 mM final concentration and then 10 μL of the media were transferred to each well of a 384 well poly-D-lysine coated solid white plate (BD #35-6661) pre-dotted with 100 nL of with the desired concentration of compound added from a concentrated stock dissolved in dimethyl sulfoxide (DMSO) to give a final concentration of 1% DMSO in the assay. The plates were covered and incubated for 30 minutes at RT. cAMP accumulation was measured using the CisBio homogeneous time resolved fluorescence (HTRF) assay kit (#62AM2PEC) following the manufacturer's protocol. Briefly, 5 μl each of the cAMP-HTRF fluorescence detection reagents were added to each well, and the samples were incubated for at least one hour at room temperature. Fluorescence was excited at 320 nm and measured at 665 and 620 nm using the Envision instrument (Perkin Elmer), the fluorescence ratio of 665/620 was calculated and converted to nanomolar concentrations of cAMP in each well by interpolation from a cAMP standard curve. The concentration-response curves and EC50 values were calculated with a four parameter logistic curve fit equation utilizing Excel/XLfit software (Microsoft and IDBS). The EC50 value was calculated as the concentration of agonist which increased the cAMP concentration to a value halfway between the baseline and the maximum.

Row | EC50 [nM] | SMILES
1 | 54 | Cc1cccc(OCCCC(=O)N2CC3CC3c3c(-c4cnn(Cc5c(F)cc(C(=O)NCCC[C@H](NC(=N)N)C(=O)O)cc5Cl)c4)cccc32)c1C (stereo partly drawn) [Example 69F, (2S)-5-(3-Chloro-4-((4-(3-(4-(2,3-dimethylphenoxy)butanoyl)-1a,2,3,7b-tetrahydro-1H-cyclopropa[c]quinolin-7-yl)-1H-pyrazol-1-yl)methyl)-5-fluorobenzamido)-2-guanidinopentanoic acid]
2 | 173 | Cc1cccc(OCCCC(=O)N2CCCc3c(-c4cnn(Cc5cccc(C(=O)N6CCC(CO)CC6)c5)c4)cccc32)c1C [Example 836, 4-(2,3-Dimethylphenoxy)-1-(5-(1-(3-(4-(hydroxymethyl)piperidine-1-carbonyl)benzyl)-1H-pyrazol-4-yl)-3,4-dihydroquinolin-1(2H)-yl)butan-1-one]
3 | 188 | Cc1c(Cl)cccc1OCCCC(=O)N1CCCOc2c(-c3cnn(Cc4ccc(C(=O)NCS(=O)(=O)O)cc4F)c3)cccc21 [Example 719, (4-((4-(5-(4-(3-Chloro-2-methylphenoxy)butanoyl)-2,3,4,5-tetrahydrobenzo[b][1,4]oxazepin-9-yl)-1H-pyrazol-1-yl)methyl)-3-fluorobenzamido)methanesulfonic acid]
4 | 49 | Cc1cccc(OCCCC(=O)N2C[C@@H]3C[C@@H]3c3c(-c4cnn(Cc5cccc(C(=O)NCCS(=O)(=O)O)c5)c4)cccc32)c1C (single isomer, unassigned) [Example 240]
5 | 43 | Cc1c(Cl)cccc1OCCCC(=O)N1CCSc2c(-c3cnn(Cc4c(F)cc(C(=O)O)cc4Cl)c3)cccc21 [Example 358, 3-Chloro-4-((4-(4-(4-(3-chloro-2-methylphenoxy)butanoyl)-3,4-dihydro-2H-benzo[b][1,4]thiazin-8-yl)-1H-pyrazol-1-yl)methyl)-5-fluorobenzoic acid]
6 | 173 | Cc1cccc(OCCOC(=O)N2CCSc3c(-c4cnn(Cc5cccc(C(=O)NCCS(=O)(=O)O)c5)c4)cccc32)c1C [Example 597, 2-(3-((4-(4-((2-(2,3-Dimethylphenoxy)ethoxy)carbonyl)-3,4-dihydro-2H-benzo[b][1,4]thiazin-8-yl)-1H-pyrazol-1-yl)methyl)benzamido)ethanesulfonic acid]
7 | 183 | Cc1c(Cl)cccc1OCCOC(=O)N1C[C@@H]2C[C@@H]2c2c(-c3cnn(Cc4cccc(C(C)(C)O)c4)c3)cccc21 [Example 434, (1aR,7bS)-2-(3-Chloro-2-methylphenoxy)ethyl 7-(1-(3-(2-hydroxypropan-2-yl)benzyl)-1H-pyrazol-4-yl)-1a,2-dihydro-1H-cyclopropa [c]quinoline-3(7bH)-carboxylate]
8 | 198 | CCOC(=O)CN(CC(=O)OCC)C(=O)c1cccc(Cn2cc(-c3cccc4c3[C@H]3C[C@H]3CN4C(=O)CCCOc3cccc(Cl)c3C)cn2)c1 [Example 896, Diethyl 2,2′-(3-((4-((1aR,7bS)-3-(4-(3-chloro-2-methylphenoxy)butanoyl)-1a,2,3,7b-tetrahydro-1H-cyclopropa[c]quinolin-7-yl)-1H-pyrazol-1-yl)methyl)benzoylazanediyl)diacetate]
9 | 42 | Cc1c(Cl)cccc1OCCCC(=O)N1CCSc2c(-c3cnn(Cc4cccc(C(=O)NCC(C)(C)O)c4)c3)cccc21 [Example 593, 3-((4-(4-(4-(3-Chloro-2-methylphenoxy)butanoyl)-3,4-dihydro-2H-benzo[b][1,4]thiazin-8-yl)-1H-pyrazol-1-yl)methyl)-N-(2-hydroxy-2-methylpropyl)benzamide]
10 | 586 | Cc1c(OCCCC(=O)N2CCCc3c(-c4cnn(Cc5cccc(C(=O)O)c5)c4)cccc32)cccc1C(F)(F)F [Example 32, 3-((4-(1-(4-(2-Methyl-3-(trifluoromethyl)phenoxy)butanoyl)-1,2,3,4-tetrahydroquinolin-5-yl)-1H-pyrazol-1-yl)methyl)benzoic acid]

Second part, the molecule before the results:

Row | SMILES | EC50 [nM]
11 | Cc1c(Cl)cccc1OC(C)(C)COC(=O)N1CCCOc2c(-c3cnn(Cc4c(F)cc(C(=O)NCCS(=O)(=O)O)cc4Cl)c3)cccc21 [Example 807, 2-(3-Chloro-4-((4-(5-((2-(3-chloro-2-methylphenoxy)-2-methylpropoxy)carbonyl)-2,3,4,5-tetrahydrobenzo[b][1,4]oxazepin-9-yl)-1H-pyrazol-1-yl)methyl)-5-fluorobenzamido)ethanesulfonic acid] | 1330
12 | Cc1cccc(OCCCC(=O)N2CCSc3c(-c4cnn(Cc5c(F)cc(C(=O)NCS(=O)(=O)O)cc5Cl)c4)cccc32)c1C [Example 578, (3-Chloro-4-((4-(4-(4-(2,3-dimethylphenoxy)butanoyl)-3,4-dihydro-2H-benzo[b][1,4]thiazin-8-yl)-1H-pyrazol-1-yl)methyl)-5-fluorobenzamido) methanesulfonic acid] | 45
13 | Cc1cccc(OCCCC(=O)N2CCCc3c(-c4cnn(C(C)c5cccc(NC(=O)NCS(=O)(=O)O)c5)c4)cccc32)c1C (centres unmarked) [Example 81, (3-(3-(1-(4-(1-(4-(2,3-Dimethylphenoxy)butanoyl)-1,2,3,4-tetrahydroquinolin-5-yl)-1H-pyrazol-1-yl)ethyl)phenyl)ureido)methanesulfonic acid] | 670
14 | Cc1c(Cl)cccc1OCCCC(=O)N1CCCOc2c(-c3cnn(Cc4c(F)cc(C(=O)NCS(=O)(=O)O)cc4Cl)c3)cccc21 [Example 702, (3-Chloro-4-((4-(5-(4-(3-chloro-2-methylphenoxy)butanoyl)-2,3,4,5-tetrahydrobenzo[b][1,4]oxazepin-9-yl)-1H-pyrazol-1-yl)methyl)-5-fluorobenzamido)methanesulfonic acid] | 46
15 | Cc1cccc(OCCCC(=O)N2CCCc3c(-c4ccn(Cc5cccc(C(=O)NCCS(=O)(=O)O)c5)c4)cccc32)c1C [Example 168N] | 4370
16 | Cc1cccc(OCCCC(=O)N2CCCc3c(-c4cnn(Cc5cncc(C(=O)O)c5)c4)cccc32)c1C [Example 359, 5-((4-(1-(4-(2,3-Dimethylphenoxy)butanoyl)-1,2,3,4-tetrahydroquinolin-5-yl)-1H-pyrazol-1-yl)methyl) nicotinic acid, TFA salt] | 1650
17 | Cc1cccc(OCCCC(=O)N2CCCc3c(-c4cccc(COC(=O)NCC(C)(C)C(=O)O)c4)cccc32)c1C [Example 257, 3-((3-(1-(4-(2,3-Dimethylphenoxy)butanoyl)-1,2,3,4-tetrahydroquinolin-5-yl)benzyloxy)carbonylamino)-2,2-dimethylpropanoic acid] | 682
18 | Cc1cccc(OCCCC(=O)N2CCCc3c(-c4cnn(CCNC(=O)CC(=O)O)c4)cccc32)c1C [Example 110J, 3-(2-(4-(1-(4-(2,3-Dimethylphenoxy)butanoyl)-1,2,3,4-tetrahydroquinolin-5-yl)-1H-pyrazol-1-yl)ethylamino)-3-oxopropanoic acid] | 3300
19 | Cc1cccc(OCCCC(=O)N2CCCc3c(-c4csc(COC(=O)NCCC(=O)O)n4)cccc32)c1C [Example 46, 3-(((4-(1-(4-(2,3-Dimethylphenoxy)butanoyl)-1,2,3,4-tetrahydroquinolin-5-yl)thiazol-2-yl)methoxy)carbonylamino)propanoic acid] | 1920
20 | Cc1cccc(OCCCC(=O)N2CCCc3c(-c4cccc(C(=O)NCCS(=O)(=O)O)c4)cccc32)c1C [Example 148, 2-(3-(1-(4-(2,3-Dimethylphenoxy)butanoyl)-1,2,3,4-tetrahydroquinolin-5-yl)benzamido) ethanesulfonic acid] | 3310
